These results are taken from patent US9290427B2, “Anti-invasive compounds” (Universiteit Gent, priority 2012, dated 2016).

The test system of experiment [1] is MCF-7/6 mammary carcinoma cells. Set-up: unit not given here. To be noted: training set compounds 1-34, Indo-Belgian screening program; class = log cmin, lowest concentration with invasion grade I or II; cited from earlier work.
Experiment [2] has the same test system. In words: chick heart invasion assay. The class given is cell-based, human. Set-up: unit not given here. To be noted: for Actual in vitro activity class: compounds 37-51, Table 11; for Actual class: training set compounds 37-51, class = log cmin, lowest concentration with invasion grade I or II; for anti-invasive activity class act.: validation set, in vitro. The text has this:
“Anti-invasive” or “anti-invasive activity” is the ability to inhibit the invasiveness of tumor cells. Invasion by tumor cells is defined as the progressive occupation and destruction of their environment, and is the result of matrix degradation and directional cell motility. Anti-invasive activity of a compound is the ability to inhibit or block invasion, and can be assessed by counting the number of invading cells, by the depth of their invasion and/or by the amount of environmental destruction. Many assays in vitro can be applied to test for anti-invasive activity (for a complete list see Bracke et al. 2008). The three most popular ones are: • Chick heart invasion assay (Bracke et al., 2001, see details below). The cut-off value is between grade II (non-invasive) and grade III (invasive). […] Collagen gels, prepared on the bottom of plastic wells are covered with a test cell suspension, and incubated with liquid culture medium for 24 h. Invasion is evaluated with an inverted phase-contrast microscope, and is based on the percentage of cells showing extensions in the gel. […] Matrigel is a mixture of basement membrane components, and is applied as a semi-solid layer on top a filter with pores allowing the transgression of cells. The test cell suspension is seeded on top of the gel, and incubated for 1 day in a two-compartment chamber system. Invasion is then evaluated via the percentage of cells that are attached to the lower side of the filter.
In the chick heart invasion assay cancer cells are confronted with a fragment of normal tissue, so as not to neglect the contribution of the host tissue in the micro-ecosystem that governs tumor behavior. As such, precultured heart tissue fragments (PHFs), dissected from 9-day-old chicken embryos, may be confronted with aggregates of human invasive MCF-7/6 mammary carcinoma cells in the presence of a certain concentration of a test compound. After eight days, the interaction between the cancer cells and the PHF is evaluated histologically and classified along a 5-grades subjective scale (Bracke et al., 2001). Grades III and IV are typical for invasion, while grades 0, I and II correspond to absence of invasion. Compounds that inhibit invasion of confronting cancer cells i.e. from III/IV to 0/I/II, are determined as anti-invasive. Possible alternative assays generally known in the art are the type I collagen invasion assay, wound healing assay and the matrigel invasion assay.
“Anti-invasive” refers to the ability to inhibit invasion of the tumor or cancer cell into surrounding tissue (within or outside the organ of origin). […] This screening method confronts cancer cells with a fragment of normal tissue, so as not to neglect the contribution of the host tissue in the micro-ecosystem that governs tumor behavior. The interaction between the cancer cells and the normal tissue is evaluated histologically and classified along a 5-grades subjective scale. Grades III and IV are typical for invasion, while grades 0, I and II correspond to absence of invasion. Compounds that inhibit invasion of confronting cancer cells i.e. from III/IV to 0/I/II, are determined as anti-invasive. Possible alternative assays generally known in the art are the type I collagen invasion assay and the Matrigel invasion assay.
The potency of these molecules had been evaluated by means of the chick heart invasion assay, as described herein before.

Like-named read-outs stand apart in the source and are kept apart here.

Take `COc1ccc(/C=C/C(=O)c2cc(C(c3ccccc3)c3ccccc3)c(OC)cc2O)cc1` [Compound 1, (2E)-1-(5-Benzhydryl-2-hydroxy-4-methoxyphenyl)-3-(4-methoxyphenyl)propenone]: the Actual class in experiment [1] is reported as 3 (>100).
On to `CCOc1ccc(/C=C/C(=O)c2cc(C(c3ccccc3)c3ccccc3)c(OC)cc2O)cc1` [Compound 2, (2E)-1-(5-Benzhydryl-2-hydroxy-4-methoxyphenyl)-3-(4-ethoxyphenyl)propenone], for which the Actual class in experiment [1] is 3 (>100).
Turning to `COc1ccc(C(=O)/C=C/c2ccccc2)cc1` [Compound 38, (2E)-3-phenyl-1-(4-methoxyphenyl)propenone], in experiment [2], the “Actual in vitro activity class” value is 1 (about 10) and the Actual class is given as 1 (about 10).
On to `COc1ccc(/C=C/C(=O)c2ccccc2)cc1` [Compound 39, (2E)-3-(4-Methoxyphenyl)-1-phenylpropenone], for which, in experiment [2], the “Actual in vitro activity class” value was 1 (about 10) and the Actual class was 1 (about 10).
With `COc1ccc(/C=C/C(=O)c2ccc(OC)cc2)cc1` [Compound 40, (2E)-3-(4-Methoxyphenyl)-1-(4-methoxyphenyl)propenone], in experiment [2], the “Actual in vitro activity class” value was 1 (about 10) and the Actual class is recorded as 1 (about 10).
With `COc1ccc(C(=O)/C=C/c2cccc(OC)c2)cc1` [Compound 41, (2E)-3-(3-Methoxyphenyl)-1-(4-methoxyphenyl)propenone], in experiment [2], the “Actual in vitro activity class” value is recorded as 0 (about 1) and the Actual class is on record as 0 (about 1).
Take `COc1cc(OC)c(C(=O)/C=C/c2cc(OC)c(OC)cc2OC)c(OC)c1` [Compound 42, (2E)-3-(2,4,5-Trimethoxyphenyl)-1-(2,4,6-trimethoxyphenyl)propenone]: in experiment [2], the “Actual in vitro activity class” value was 1 (about 10) and the Actual class is given as 1 (about 10).
Regarding `COc1ccc(C(=O)/C=C/c2cc(OC)c(OC)cc2OC)cc1` [Compound 44, (2E)-3-(2,4,5-Trimethoxyphenyl)-1-(4-methoxyphenyl)propenone], in experiment [2], the “Actual in vitro activity class” value is 0 (about 1) and the Actual class was 0 (about 1).
`COc1ccc(C(=O)/C=C/c2c(OC)cc(OC)cc2OC)cc1` [Compound 45, (2E)-1-(4-methoxyphenyl)-3-(2,4,6-trimethoxyphenyl)prop-2-en-1-one]: in experiment [2], the “Actual in vitro activity class” value is given as −1 (about 0.1) and the Actual class was −1 (about 0.1).
Turning to `COc1cc(OC)c(OC)cc1/C=C/C(=O)c1c(OC)cccc1OC` [Compound 46, (2E)-3-(2,4,5-Trimethoxyphenyl)-1-(2,6-dimethoxyphenyl)propenone], in experiment [2], the “Actual in vitro activity class” value is on record as 1 (about 10) and the Actual class is given as 1 (about 10).
As to `COc1cc(OC)c(/C=C/C(=O)c2c(OC)cccc2OC)c(OC)c1` [Compound 47, (2E)-3-(2,4,6-Trimethoxyphenyl)-1-(2,6-dimethoxyphenyl)propenone], in experiment [2], the “Actual in vitro activity class” value is 0 (about 1) and the Actual class is given as 0 (about 1).
As for `COc1ccc(C(=O)/C=C/c2ccc(F)cc2)cc1` [Compound 48, (2E)-3-(4-Fluorophenyl)-1-(4-methoxyphenyl)propenone], in experiment [2], the “Actual in vitro activity class” value is 0 (about 1) and the Actual class was 0 (about 1).
Consider `O=C(/C=C/c1ccc(F)cc1)c1ccc(F)cc1` [Compound 50, (2E)-3-(4-Fluorophenyl)-1-(4-fluorophenyl)propenone], for which, in experiment [2], the “Actual in vitro activity class” value is 1 (about 10) and the Actual class is 1 (about 10).
For `COc1ccc(C(=O)/C=C/c2ccc(Cl)cc2)cc1` [Compound 52, (2E)-3-(4-chlorophenyl)-1-(4-methoxyphenyl)prop-2-en-1-one], in experiment [2], the “anti-invasive activity class act.” value is recorded as −2 (about 0.01).
`O=C(/C=C/c1cccc(F)c1)c1ccc(F)cc1` [Compound 53, (2E)-3-(3-Fluorophenyl)-1-(4-fluorophenyl)propenone]: the “anti-invasive activity class act.” value in experiment [2] is reported as −1 (about 0.1).
For the compound `COc1ccc(C(=O)/C=C/c2cccc(F)c2)cc1` [Compound 54, (2E)-3-(3-Fluorophenyl)-1-(4-methoxyphenyl)propenone], the “anti-invasive activity class act.” value in experiment [2] is 1 (about 10).
Regarding `COc1ccc(C(=O)/C=C/c2ccccc2F)cc1` [Compound 55, (2E)-3-(2-Fluorophenyl)-1-(4-methoxyphenyl)propenone], in experiment [2], the “anti-invasive activity class act.” value was 1 (about 10).
Take `O=C(/C=C/c1ccc(F)cc1)c1ccc(O)cc1` [Compound 58, (2E)-3-(4-Fluorophenyl)-1-(4-hydroxyphenyl)propenone]: the “anti-invasive activity class act.” value in experiment [2] was 1 (about 10).
Regarding `CC(C)=CCOc1ccc(C(=O)/C=C/c2ccc(F)cc2)cc1` [Compound 62, (2E)-3-(4-Fluorophenyl)-1-[4-(3-methylbut-2-enyloxy)phenyl]propenone], the “anti-invasive activity class act.” value in experiment [2] is given as “>=2 (about 100)”.
With `O=C(C=Cc1ccc(F)cc1)c1ccco1` [Compound 68, 1-(2-Furyl)-3-(4-fluorophenyl)propenone], the “anti-invasive activity class act.” value in experiment [2] is given as 1 (about 10).
For the compound `O=C(C=Cc1ccco1)c1ccco1` [Compound 70, 1,3-Difuran-2-yl-propenone], in experiment [2], the “anti-invasive activity class act.” value is −1 (about 0.1).
For `O=C(/C=C/c1ccco1)c1ccccc1` [Compound 72, (2E)-3-Furan-2-yl-1-phenylpropenone], in experiment [2], the “anti-invasive activity class act.” value was “>=2 (about 100)”.
As to `O=C(/C=C/c1ccco1)c1ccc(F)cc1` [Compound 73, (2E)-3-(2-Furanyl)-1-(4-fluorophenyl)propenone], in experiment [2], the “anti-invasive activity class act.” value was 2 (about 100).
Take `COc1ccc(C(=O)C=Cc2ccco2)cc1` [Compound 74, 3-Furan-2-yl-1-(4-methoxyphenyl)propenone]: the “anti-invasive activity class act.” value in experiment [2] is 2 (about 100).
Take `COc1cc(C(=O)/C=C/c2ccco2)cc(OC)c1OC` [Compound 75, (2E)-3-(2-Furanyl)-1-(3,4,5-trimethoxyphenyl)propenone]: the “anti-invasive activity class act.” value in experiment [2] is reported as −1 (about 0.1).
Consider `COc1cccc(OC)c1C(=O)/C=C/c1ccco1` [Compound 76, (2E)-3-(2-Furanyl)-1-(2,6-dimethoxyphenyl)propenone], for which the “anti-invasive activity class act.” value in experiment [2] is −1 (about 0.1).
With `O=C(/C=C/c1ccoc1)c1ccc(F)cc1` [Compound 77, (2E)-3-(3-Furanyl)-1-(4-fluorophenyl)propenone], the “anti-invasive activity class act.” value in experiment [2] was −1 (about 0.1).
For the compound `O=C(/C=C/c1cc2ccccc2o1)c1ccc(F)cc1` [Compound 78, (2E)-3-(2-Benzofuranyl)-1-(4-fluorphenyl)propenone], in experiment [2], the “anti-invasive activity class act.” value is 2 (about 100).
On to `COc1ccc(C(=O)/C=C/c2cc3ccccc3o2)cc1` [Compound 79], for which the “anti-invasive activity class act.” value in experiment [2] is listed as 2 (about 100).
For the compound `C=CCn1cc(C(=O)/C=C/c2ccc(Cl)cc2)c2ccccc21` [Compound 84], the “anti-invasive activity class act.” value in experiment [2] was “≧2 (about 100)”.
For `CC(C)=CCn1cc(C(=O)/C=C/c2ccc(Cl)cc2)c2ccccc21` [Compound 85, (2E)-3-(4-Chlorophenyl)-1-[1-(3-methylbut-2-enyl)-1H-indol-3-yl]propenone], in experiment [2], the “anti-invasive activity class act.” value is on record as “≧2 (about 100)”.
Same read-out and setting: to `CC1(C)CCc2c(O)c(C(=O)/C=C/c3cccc([N+](=O)[O-])c3)c3c(c2O1)CCC(C)(C)O3` [Compound 88, (2E)-1-(5-Hydroxy-2,2,8,8-tetramethyl-3,4,9,10-tetrahydro-2H,8H-pyrano[2,3-f]chromen-6-yl)-3-(3-nitro-phenyl)propenone] belongs “≧3 (>100)”.
`COc1cc(O)c(C(=O)/C=C/c2cccc([N+](=O)[O-])c2)cc1C(c1ccccc1)c1ccccc1` [Compound 89, (2E)-1-(5-Benzhydryl-2-hydroxy-4-methoxy-phenyl)-3-(3-nitro-phenyl)-propenone]: the “anti-invasive activity class act.” value in experiment [2] was “≧3 (>100)”.
For the compound “(2E)-1,3-diphenylpropenone [Compound 37]”, in experiment [2], the “Actual in vitro activity class” value is on record as 1 (about 10) and the Actual class is 1 (about 10).
